In US20250051350A1, “Dihydroartemisinin derivatives and the treatment of fibrotic diseases” (GreenStone Biosciences, Inc., priority 2023, published 2025):
Like-named read-outs stand apart in the source and are kept apart here.

Key:
[1] = test system: Induced pluripotent stem cell-derived cardiac fibroblasts (ACTA2-GFP); assay: Antifibrotic effects in TGF-β-activated iPSC-derived cardiac fibroblasts (ACTA2-GFP fluorescence); type: cell-based; conditions: for reduction in fluorescence (fibrotic marker ACTA2-GFP) / IC50: activated with TGF-β, 48 hours; for reduction in fluorescence (fibrotic marker ACTA2-GFP): various concentrations; for IC50: simultaneous treatment, ACTA2-GFP fluorescence, read-out: IC50, reduction in fluorescence
Excerpt: Induced pluripotent stem cell-derived cardiac fibroblasts were constructed containing a fusion of the alpha-smooth muscle actin to the green fluorescent protein (ACTA2-GFP) construct. ACTA2 is a myofibroblast marker, such that the fibroblasts fluoresce with an intensity dependent on the extent of fibrosis.

[2] = in vitro; type: in vitro ADME; conditions: for fraction unbound: plasma
Procedure: Plasma protein binding assays were conducted in triplicate for compounds PT-2, PT-14, PT-28, and PT-30, with artesunate, DHA, and warfarin as comparators.

[3] = Intravenous and oral pharmacokinetics in mice; type: in vivo; conditions: male C57BL/6J mice; for IV AUC0-last / IV Clearance / IV T1/2 / IV VD,ss / PO AUC0-last / PO T1/2: plasma
Procedure: The intravenous (IV) and oral (PO) pharmacokinetics of the PT compounds were measured in 6-10 week-old male C57BL/6J mice, using three mice/group. The test compounds were formulated in an appropriate water-based vehicle to give a clear solution for IV administration, or a clear solution or uniform suspension for PO administration. Animals were dosed within 4 hours of the preparation of the formulations; with the dose volume being determined by the animal's body weight measured on the morning of the dosing day. Blood samples (about 25 μL per time point) were taken at 5 and 15 minutes and 1, 3, and 5 hours after dosing, into pre-chilled EDTA-K2 tubes and kept on wet ice until centrifugation. The tubes were centrifuged at 3200×g at about 4° C. for 10 minutes, and the plasma analyzed by LC-MS/MS.

[4] = test system: MD2 signaling pathway (HEK Blue-TLR4 cells); assay: HEK Blue-TLR4 assay (MD2 pathway); type: cell-based; conditions: 1 h preincubation, 10 ng/mL lipopolysaccharide, read after 20 hours at 655 nm
Procedure: HEK Blue-TLR4 cells were plated in detection media, preincubated with vehicle or PT-2, PT-14, or PT-30 dissolved in vehicle (with artesunate, DHA, and artemisinin comparators) for 1 h, then co-stimulated with 10 ng/mL lipopolysaccharide. Reporter activity was read after 20 hours at 655 nm in a spectrophotometer. The PT compounds were active in this assay, showing that they inhibit the MD2 signaling pathway.

[5] = test system: bleomycin-induced pulmonary fibrosis model; conditions: bleomycin-induced pulmonary fibrosis model in rats; cited from earlier work

Row | SMILES | reduction in fluorescence (fibrotic marker ACTA2-GFP) [1] | recovery ([2]; human) | fraction unbound ([2]; human) | recovery ([2]; mouse) | fraction unbound ([2]; mouse) | IC50 [1] | IV AUC0-last [3] | IV Clearance [3] | IV T1/2 [3] | IV VD,ss [3] | PO Bioavailability [3] | PO AUC0-last [3] | PO T1/2 [3] | activity in HEK Blue-TLR4 reporter assay (inhibition of MD2 signaling pathway) [4] | antifibrotic efficacy in this model ([1]; TGF-β-activated iPSC-derived cardiac fibroblasts) | IC50 ([1]; Cardiac fibroblast) | antifibrotic activity [5]
1 | C[C@H]1[C@@H](O)OC2O[C@@]3(C)CC[C@H]4[C@H](C)CC[C@@H]1[C@@]24OO3 (stereo in doubt) [DHA, (3R,5aS,6R,8aS,9R,12S,12aR)-decahydro-3,6,9-trimethyl-3,12-epoxy-12H-pyrano[4,3-j]-1,2-benzodioxepin-10-ol] | dose-dependent reduction in fluorescence | 102% | 0.108 | 105% | 0.1 | – | – | – | – | – | – | – | – | – | – | – | –
2 | CC(CO)C(=O)OC1OC2OC3(C)CCC4C(C)CCC(C1C)C24OO3 (stereo not shown) [PT-1, DHA 3-hydroxy-2-methylpropionate] | – | – | – | – | – | 2300 nM | 100 ng·h/mL | 1280 mL/min/kg | 7.8 min | 9.0 L/kg | 1.3% | 20 ng·h/mL | 22.2 min | – | – | – | –
3 | C[C@H]1[C@@H](OC(=O)C(C)(C)CO)O[C@@H]2O[C@@]3(C)CC[C@H]4[C@H](C)CC[C@@H]1[C@@]24OO3 [PT-2, DHA 3-hydroxy-2,2-dimethylpropanoate] | – | – | – | – | – | 880 nM | 1200 ng·h/mL | 140 mL/min/kg | 6 min | 1.3 L/kg | 27% | 3200 ng·h/mL | – | active | – | – | –
4 | CC1CCC2C(C)C(OC(=O)CC(C)(C)O)OC3OC4(C)CCC1C32OO4 (stereo not shown) [PT-4, DHA 3-hydroxy-3-methylbutanoate] | – | – | – | – | – | 5600 nM | 600 ng·h/mL | 280 mL/min/kg | 6.6 min | 2.0 L/kg | 11% | 500 ng·h/mL | 10.8 min | – | – | – | –
5 | CC1CCC2C(C)C(OC(=O)N3CC(O)C3)OC3OC4(C)CCC1C32OO4 (stereo not shown) [PT-13, DHA 3-hydroxyazetidine-1-carboxylate] | – | – | – | – | – | 2600 nM | 2200 ng·h/mL | 76 mL/min/kg | 7.2 min | 0.9 L/kg | 64% | 14100 ng·h/mL | 41.4 min | – | – | – | –
6 | CC1CCC2C(C)C(OC(=O)N3CC(C)(O)C3)OC3OC4(C)CCC1C32OO4 (stereo not shown) [PT-14, DHA 3-hydroxy-3-methylazetidine-1-carboxylate] | – | – | – | – | – | 570 nM | 2200 ng·h/mL | 75 mL/min/kg | 10.8 min | 1.1 L/kg | 92% | 20500 ng·h/mL | 39.6 min | active | – | – | –
7 | CC1CCC2C(C)C(OC(=O)N(C)CCO)OC3OC4(C)CCC1C32OO4 (stereo not shown) [PT-20, DHA (2-hydroxyethyl)(methyl)carbamate] | – | – | – | – | – | – | 2400 ng·h/mL | 69 mL/min/kg | 14.4 min | 0.8 L/kg | 73% | 17700 ng·h/mL | 31.8 min | – | – | – | –
8 | CC1CCC2C(C)C(OC(=O)N3CC(C)(N)C3)OC3OC4(C)CCC1C32OO4 (stereo not shown) [PT-24, DHA 3-amino-3-methylazetidine-1-carboxylate] | – | – | – | – | – | – | 2200 ng·h/mL | 77 mL/min/kg | 15.6 min | 2.2 L/kg | 123% | 24300 ng·h/mL | 67.2 min | – | – | – | –
9 | CC1CCC2C(C)C(OC(=O)N3CC(C)(C(=O)O)C3)OC3OC4(C)CCC1C32OO4 (stereo not shown) [PT-25, DHA 3-carboxy-3-methylazetidine-1-carboxylate] | – | – | – | – | – | – | 2200 ng·h/mL | 74 mL/min/kg | 16.2 min | 1.3 L/kg | 17% | 3700 ng·h/mL | 113 min | – | – | – | –
10 | CC1CCC2C(C)C(OC(=O)N3CC(C)(C(N)=O)C3)OC3OC4(C)CCC1C32OO4 (stereo not shown) [PT-27, DHA 3-methyl-3-carbamoylazetidine-1-carboxylate] | – | – | – | – | – | – | 3300 ng·h/mL | 47 mL/min/kg | 15 min | 1.0 L/kg | 41% | 14400 ng·h/mL | 78 min | – | – | – | –
11 | CNC(=O)C1(C)CN(C(=O)O[C@H]2O[C@@H]3O[C@@]4(C)CC[C@H]5[C@H](C)CC[C@@H]([C@H]2C)[C@@]35OO4)C1 [PT-28, DHA 3-methyl-3-(methylcarbamoyl)azetidine-1-carboxylate] | – | – | – | – | – | – | 4200 ng·h/mL | 38 mL/min/kg | 14.4 min | 0.8 L/kg | 112% | 48800 ng·h/mL | 28.8 min | – | demonstrated antifibrotic efficacy | – | –
12 | CC1CCC2C(C)C(OC(=O)N3CC(C)(C(=O)N(C)C)C3)OC3OC4(C)CCC1C32OO4 (stereo not shown) [PT-29, DHA 3-methyl-3-(dimethylcarbamoyl)azetidine-1-carboxylate] | – | – | – | – | – | – | 2000 ng·h/mL | 82 mL/min/kg | 7.8 min | 0.9 L/kg | 34% | 6800 ng·h/mL | 64.8 min | – | – | – | –
13 | C[C@H]1[C@H](OC(=O)CCC(=O)O)O[C@@H]2O[C@@]3(C)CC[C@H]4[C@H](C)CC[C@@H]1[C@@]24OO3 [artesunate] | dose-dependent reduction in fluorescence | 98% | 0.233 | 53.4% | 0.278 | – | – | – | – | – | – | – | – | – | – | 2800 nM | active as an antifibrotic agent
14 | CC(=O)CC(c1ccccc1)c1c(O)c2ccccc2oc1=O (stereo not shown) [warfarin] | – | 91.1% | 0.003 | 94.5% | 0.007 | – | – | – | – | – | – | – | – | – | – | – | –
